Read-outs that look alike come from different tables or passages of the source.
Key:
SW1 cells = test: cells; type: cell-based, mouse; settings: for effect of JNK inhibitor SP600125 on compound-induced cell death: 30-minute pretreatment with SP600125 (10 μM), then compound 20 h
Experimental: (§1) Cell lines. Mouse melanoma (SW1) and human melanoma (LU1205) cells were maintained in DMEM supplemented with 10% FBS, L-glutamine and antibiotics. The human melanoma cell lines MEWO and WM115 were maintained in RPMI supplemented with 10% FBS and antibiotics. Primary mouse melanocytes were cultured in F-12 media supplemented with 10% FBS, antibiotics, IBMX (isobuthyl-methylxantine), bovine pituitary extract, and TPA.
Mitochondrial activity and apoptosis. Cells were exposed to the chemicals for 12-48 hours as indicated in Results. To measure changes in mitochondrial activity reflective of general cell viability, the ATPLITE ATP detection assay was used according to the manufacturer's recommendations (Perkin Elmer). Apoptosis analysis was performed by flow cytometry of PI-stained cells. The percentage of cells to the left of the diploid G0/1 peak, characteristic of hypodiploid cells that have partially lost DNA, was calculated as percentage of apoptotic cells (Bhoumik et al., PNAS 101:4222-7, 2004). Analysis of changes in Caspase 8 expression pattern was performed using immunoblot analysis. […]
(§2) Characterization of CSL and AIGA effects on mouse melanoma cells. The structures of AIGA and CSL are depicted in FIGS. 1a and 1b. AIGA was tested for cytotoxicity at concentrations ranging between 0.1 and 2 μM, whereas CSL was used at a concentration of 0.01 to 0.3 μM. SW1 cells or normal melanocytes were seeded on 96 well plates and 24 h late, cells were treated with the indicated concentrations of ATF2 50-100 peptide, AIGA, or CSL for 20 h. ATF2 50-100 peptide (cloned in mammalian expression vector in frame with penetratin was transfected with the aid of lipofectamine) was used as a positive control. ATP levels were used as an indicator of cell viability and were measured using the ATPLITE ATP detection assay kit. The number of surviving cells upon AIGA treatment was normalized to the number of surviving cells under the control treatment, and the normalized number was designated as the “% Viability.” Results shown in FIGS. 1c-1f represent 3 experiments. Treatment of SW1 melanoma cells with 1 μM of AIGA reduced the viability of melanoma cells to 10%, (FIG. 1c). Treatment of the SW1 cells with 0.05 μM of CSL reduced the viability of melanoma cells to 50%, and 0.1 μM reduced it to 10% (FIG. 1d). […] Normal melanocytes and fibroblasts were used as a control.
Thus, the two compounds were evaluated to determine if they require JNK activity for their effects on melanoma cells. To this end, the ability of AIGA or CSL to affect the viability of melanoma cells in the presence of a JNK inhibitor was tested. SW1 cells, with or without a 30-minute pretreatment with the JNK inhibitor SP600125 (10 μM), were contacted with AIGA or CSL at the indicated concentrations for 20 h. ATP levels were used to measure the cell viability using the ATPLITE kit. The number of surviving cells upon AIGA or CSL treatment was normalized to the number of surviving cells under the control treatment, and the normalized number was designated as the “% Viability.” Shown are representative results from 2 experiments. […] Of note, inhibition of JNK activity was more pronounced at lower concentrations of CSL compared with AIGA. […] To assess whether these compounds affect JNK activity, changes in JNK phosphorylation on residues 183/185, which are required for its kinase activity, were monitored. Western blot analysis for JNK phosphorylation on residues 183/185 was performed on protein extracts that were prepared from cells treated with AIGA at concentrations of 0.5 μM, 1.0 μM, and 2.0 μM and a control with no AIGA treatment. Duplicate samples were treated with JNK inhibitor (SP600125). Total level of JNK was analyzed in parallel. […]

normal mouse melanocytes = test: Normal melanocyte viability, ATPLITE; type: cell-based; settings: 0.1 μM, 20 h
Experimental: as §1
Mitochondrial activity and apoptosis. Cells were exposed to the chemicals for 12-48 hours as indicated in Results. To measure changes in mitochondrial activity reflective of general cell viability, the ATPLITE ATP detection assay was used according to the manufacturer's recommendations (Perkin Elmer). Apoptosis analysis was performed by flow cytometry of PI-stained cells. The percentage of cells to the left of the diploid G0/1 peak, characteristic of hypodiploid cells that have partially lost DNA, was calculated as percentage of apoptotic cells (Bhoumik et al., PNAS 101:4222-7, 2004). Analysis of changes in Caspase 8 expression pattern was performed using immunoblot analysis.
Characterization of CSL and AIGA effects on mouse melanoma cells. The structures of AIGA and CSL are depicted in FIGS. 1a and 1b. […] ATP levels were used as an indicator of cell viability and were measured using the ATPLITE ATP detection assay kit. […]

[1] = test system: human diploid fibroblasts (IMR90); test: Toxicity on human diploid fibroblasts; type: cell-based
Experimental: as §2

[2] = test system: NF-κB transcriptional activity; test: 2-NFκ-B-luciferase reporter assay in SW1 cells; type: cell-based, mouse; settings: 8 h
Experimental: Constructs and inhibitors. An ATF2 peptide (aa 51-100) was cloned into HA-tagged pcDNA3 vector as previously described (Bhoumik et al., Cancer Res 64:8222-30, 2004). 5×Jun2tk-Luc (marker for ATF2 transcriptional activities), 5×TRE-tk-Luc (marker for AP1/c-Jun transcriptional activities) and 2×NF-B-Luc were previously described (Bhoumik et al., J Clin Invest 110:643-50, 2002). Pharmacological inhibitor of JNK (SP600125) was purchased (EMD biosciences) and added (5 μM) to cultured cells as indicated in Results.
Transcriptional analysis. Transient transfection of different reporter constructs into melanoma cells was performed using LIPOFECTAMINE PLUS transfection reagent (Invitrogen). Luciferase activity was determined as previously described (Bhoumik et al., PNAS 101:4222-7, 2004).
To assess whether CSL may affect the transcriptional activities of genes other than ATF2 and c-Jun, possible changes in transcriptional activities of NF-κB were monitored. Transcriptional activation of NFκ-B was assessed using the 2-NFκ-B-luciferase assay. Briefly, SW1 cells were transfected with the 2-NFκ-B-luciferase plasmid and 24 h later, cells were treated with the indicated concentrations of AIGA or CSL for 8 h before proteins were prepared and level of luciferase activity was measured. ATF250-100 peptide was used as a positive control. Data shown represent results from 2 experiments. […]

Row | Compound | effect of JNK inhibitor SP600125 on compound-induced cell death (SW1 cells) | viability at 0.05 µM (SW1 cells; Mus musculus, 0.05 μM, 20 h, read-out: % Viability of SW1 melanoma cells) [%] | viability at 0.1 µM (SW1 cells; Mus musculus, 0.1 μM, 20 h, read-out: % Viability of SW1 melanoma cells) [%] | EC50 (SW1 cells; Mus musculus, numeric EC50 cells of the column, read-out: Activity or EC50 (μM) in SW1 cells) [µM] | toxicity on normal mouse melanocytes (normal mouse melanocytes) [%] | toxic effect on human diploid fibroblasts (IMR90) ([1]; data not shown) | NF-κB transcriptional activity [2] | viability at 1 µM (SW1 cells; Mus musculus, 20 h, read-out: % Viability of SW1 melanoma cells) [%] | toxic effect on human diploid fibroblasts (IMR90) [1]
1 | CC1=C(O)C(=O)C=C2C1=CC=C1[C@@]2(C)CC[C@@]2(C)[C@@H]3C[C@](C)(C(=O)O)CC[C@]3(C)CC[C@]12C [Celastrol] | attenuated the ability of AIGA or CSL to elicit the cell death | 50 | 10 | ~0.1 | 10 | Neither CSL nor AIGA elicited toxic effect | dose-dependent inhibition | – | –
2 | CC(=O)Oc1c2c(c(CC=C(C)C)c3c1C(=O)C1=C[C@@H]4CC5C(C)(C)OC(C/C=C(\C)C(=O)O)(C4=O)[C@@]15O3)OC(C)(CCC=C(C)C)C=C2 (stereo partly drawn) [AIGA, Acetyl isogambogic acid] | attenuated the ability of AIGA or CSL to elicit the cell death | – | – | – | 40 | – | dose-dependent inhibition | 10 | Neither CSL nor AIGA elicited toxic effect

Reference: US7888355B2, “Compositions and methods for inhibiting growth and metastasis of melanoma” (Burnham Institute for Medical Research, priority 2007, dated 2011)
